Test results: patent US7414107B2, “Pharmacologically active peptide conjugates having a reduced tendency towards enzymatic hydrolysis” (priority 1998, dated 2008)

Columns and labels:
PTH (1-34)-antibody = conditions: EIAS(h)-6101 from Peninsula Laboratories; cited from earlier work
leucine aminopeptidase = target: T1, leucine aminopeptidase (Sus scrofa, UniProt P28839); test: Hydrolysis kinetics in leucine aminopeptidase solution; type: in vitro ADME, porcine; conditions: 50 mM phosphate buffer pH 7.4, 37° C., leucine aminopeptidase 25 U/ml; for half-life: pig
T1 construct: purchased Sigma, UK type III-CP (catalogue number not given); host or cells: porcine kidney
T1 sequence (P28839 1-519): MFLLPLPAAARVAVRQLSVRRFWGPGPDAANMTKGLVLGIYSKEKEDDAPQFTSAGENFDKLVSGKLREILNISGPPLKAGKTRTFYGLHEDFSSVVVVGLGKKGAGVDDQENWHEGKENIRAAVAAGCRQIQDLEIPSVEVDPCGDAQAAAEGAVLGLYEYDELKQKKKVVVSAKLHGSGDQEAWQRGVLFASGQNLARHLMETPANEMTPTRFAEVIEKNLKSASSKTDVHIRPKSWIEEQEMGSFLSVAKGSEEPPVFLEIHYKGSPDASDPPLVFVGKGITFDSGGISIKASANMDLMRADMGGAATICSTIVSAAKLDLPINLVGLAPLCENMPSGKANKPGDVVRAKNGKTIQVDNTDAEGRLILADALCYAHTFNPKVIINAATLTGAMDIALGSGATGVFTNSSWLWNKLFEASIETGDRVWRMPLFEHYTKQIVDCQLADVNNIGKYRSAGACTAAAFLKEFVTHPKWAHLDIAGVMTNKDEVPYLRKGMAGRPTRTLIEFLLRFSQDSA
Experimental: (§1) Carboxypeptidase A (EC 3.4.17.1) type I from bovine pancreas, leucine aminopeptidase (EC 3.4.11.1) type III-CP from porcine kidney, α-chymotrypsin (EC […]) from bovine pancreas, and pepsin A (EC 3.4.23.1) from porcine stomach mucosa […] were obtained from Sigma, UK.
(§2) Gradient HPLC analysis of samples from in vitro kinetic measurements performed as described below was performed using a Hewlett Packard HP 1100 HPLC system consisting of a HP 1100 Binary Pump, a HPI 100 Autosampler, a HPI 100 Column Thermostat and a HP 1100 Variable Wavelength Detector. A Merck LiChroCART column (125×4 mm I.D.) and a LiChroCART precolumn (4×4 mm I.D.) packed with Lichrospher RP-18 (5 .μum particles) was used. The column was kept at 25° C. or 75° C. and the column effluent was measured by UV detection at 215 run. Separation of the peptide conjugates or the native peptides from degradation products and constituents of the reaction solutions was accomplished using gradient elution of the column with mixtures of mobile phase A (0.1 vol % TFA in water) and mobile phase B (0.085 vol % TFA in acetonitrile) at a flow rate of 1 ml/min.
(§3) The degradation of the peptide conjugate and the corresponding native peptide were studied at 37° C. in a 50 mM phosphate buffer solution at pH 7.4 containing leucine arninopeptidase (25 U/ml) or carboxypeptidase A (1 or 25 U/ml). Experiments were initiated by addition of an aliquot (100 μl) of a stock solution (1 mg/ml) of the peptide conjugate or the native peptide to 900 μl preheated enzyme solution giving a final concentration of ˜0.1 mg/ml (10^−5-10^−4M) of the peptide conjugate or the native peptide. The peptide/enzyme solution was kept at 37° C. using a SHT200D block heater from Stuart Scientific. At appropriate time intervals, samples of 100 μl were withdrawn from the peptide/enzyme solution, mixed thoroughly with 20 μl 25% TFA in acetonitrile in order to stop the enzymatic degradation process and analysed by HPLC as described above. Half-lives (t1/2) for the peptide conjugate and the corresponding native peptide in the enzyme solutions were calculated from plots of the natural logarithm to the concentration of the residual peptide (HPLC peak heights) against time using the formula t/2=1/kobs×ln(2), where kobs is the apparent first-order rate constant for the observed degradation.

carboxypeptidase A = target: T2, carboxypeptidase A (Bos taurus, UniProt P00730); test: Hydrolysis kinetics in carboxypeptidase A solution; type: in vitro ADME, bovine; conditions: 50 mM phosphate buffer pH 7.4, 37° C., carboxypeptidase A 1 U/ml
T2 construct: purchased Sigma, UK type I (catalogue number not given); host or cells: bovine pancreas
T2 sequence (P00730 111-419): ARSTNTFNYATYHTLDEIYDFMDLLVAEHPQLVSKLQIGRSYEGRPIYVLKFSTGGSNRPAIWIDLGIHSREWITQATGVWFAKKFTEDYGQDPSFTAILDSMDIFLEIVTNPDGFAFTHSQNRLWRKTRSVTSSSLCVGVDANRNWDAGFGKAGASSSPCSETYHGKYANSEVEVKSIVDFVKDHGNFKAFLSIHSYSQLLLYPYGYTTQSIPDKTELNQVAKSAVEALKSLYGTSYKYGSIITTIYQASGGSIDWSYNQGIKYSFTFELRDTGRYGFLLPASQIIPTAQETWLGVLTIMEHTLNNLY
Experimental: as §1, §2, §3

osteoblast = test: Osteoblast retraction assay; type: cell-based, mice; conditions: for Retraction assay % Retracted cells: 10 nM, 1 h, mouse calvaria osteoblasts; for activity relative to the mother compound hPTH(1-34): Osteoblast retraction assay
Experimental: Retraction assays were performed with osteoblast prepared from calvaria of 1-day old mice according to published protocols (Miller et al., 1976, Science 192:1340-1343). In brief, osteoblasts were seeded in serum-free minimal essential medium-α (αMEM) at a density of 3000 cells per cm^2 into 96-well tissue culture plates coated with 50 μg/ml of type I collagen in phosphate-buffered saline containing 0.1% bovine serum albumin (PBS). One day after plating, PTH compounds were added to a final concentration of 10 nM and incubation was carried out for 1 h. Cells were then fixed and stained with toluidine blue, and the number of retracted cells was counted by visual inspection.

hPTH(1-38): human PTH fragment listed in the EIA kit specificity (SVSEIQLMHNLGKHLNSMERVEWLRKKLQDVHNFVALG; Parathyroid hormone; UniProt P01270 32-69, looked up, fragment)
Specificity of the assay (PTH (1-34)-antibody): 100%

ratPTH(1-34): rat PTH fragment listed in the EIA kit specificity (AVSEIQLMHNLGKHLASVERMQWLRKKLQDVHNF; Parathyroid hormone; UniProt P04089 32-65, looked up, fragment)
Specificity of the assay (PTH (1-34)-antibody): 0%

hPTH(1-44): human PTH fragment listed in the EIA kit specificity (SVSEIQLMHNLGKHLNSMERVEWLRKKLQDVHNFVALGAPLAPR; Parathyroid hormone; UniProt P01270 32-75, looked up, fragment)
Specificity of the assay (PTH (1-34)-antibody): 0%

CC[C@H](C)[C@H](NC(=O)[C@H](CCC(=O)O)NC(=O)[C@H](CO)NC(=O)[C@@H](NC(=O)[C@@H](N)CO)C(C)C)C(=O)N[C@@H](CCC(N)=O)C(=O)N[C@@H](CC(C)C)C(=O)N[C@@H](CCSC)C(=O)N[C@@H](Cc1c[nH]cn1)C(=O)N[C@@H](CC(N)=O)C(=O)N[C@@H](CC(C)C)C(=O)NCC(=O)N[C@@H](CCCCN)C(=O)N[C@@H](Cc1c[nH]cn1)C(=O)N[C@@H](CC(C)C)C(=O)N[C@@H](CC(N)=O)C(=O)N[C@@H](CO)C(=O)N[C@@H](CCSC)C(=O)N[C@@H](CCC(=O)O)C(=O)N[C@@H](CCCNC(=N)N)C(=O)N[C@H](C(=O)N[C@@H](CCC(=O)O)C(=O)N[C@@H](Cc1c[nH]c2ccccc12)C(=O)N[C@@H](CC(C)C)C(=O)N[C@@H](CCCNC(=N)N)C(=O)N[C@@H](CCCCN)C(=O)N[C@@H](CCCCN)C(=O)N[C@@H](CC(C)C)C(=O)N[C@@H](CCC(N)=O)C(=O)N[C@@H](CC(=O)O)C(=O)N[C@H](C(=O)N[C@@H](Cc1c[nH]cn1)C(=O)N[C@@H](CC(N)=O)C(=O)N[C@@H](Cc1ccccc1)C(=O)N[C@@H](CCCCN)C(=O)N[C@@H](CCCCN)C(=O)N[C@@H](CCCCN)C(=O)N[C@@H](CCCCN)C(=O)N[C@@H](CCCCN)C(=O)N[C@@H](CCCCN)C(=O)O)C(C)C)C(C)C [PTH(1-34)(Human)-(Lys)6-OH, H-Ser-Val-Ser-Glu-Ile-Gln-Leu-Met-His-Asn-Leu-Gly-Lys -His-Leu-Asn-Ser-Met-Glu-Arg-Val-Glu-Trp-Leu-Arg-Lys-Lys-Leu-Gln-Asp-Val -His-Asn-Phe-Lys6-OH]
pseudo first-order rate constant for the degradation (leucine aminopeptidase): 0.0012 min⁻¹ | half-life (leucine aminopeptidase): 9.63 h | half-life (carboxypeptidase A): 0.783 h | pseudo first-order rate constant for the degradation (carboxypeptidase A): 0.015 min⁻¹ | Retraction assay % Retracted cells (osteoblast): 37.4% | activity relative to the mother compound hPTH(1-34) (osteoblast): 55%

CC[C@H](C)[C@H](NC(=O)[C@H](CCC(=O)O)NC(=O)[C@H](CO)NC(=O)[C@@H](NC(=O)[C@H](CO)NC(=O)[C@H](CCCCN)NC(=O)[C@H](CCCCN)NC(=O)[C@H](CCCCN)NC(=O)[C@H](CCCCN)NC(=O)[C@H](CCCCN)NC(=O)[C@@H](N)CCCCN)C(C)C)C(=O)N[C@@H](CCC(N)=O)C(=O)N[C@@H](CC(C)C)C(=O)N[C@@H](CCSC)C(=O)N[C@@H](Cc1c[nH]cn1)C(=O)N[C@@H](CC(N)=O)C(=O)N[C@@H](CC(C)C)C(=O)NCC(=O)N[C@@H](CCCCN)C(=O)N[C@@H](Cc1c[nH]cn1)C(=O)N[C@@H](CC(C)C)C(=O)N[C@@H](CC(N)=O)C(=O)N[C@@H](CO)C(=O)N[C@@H](CCSC)C(=O)N[C@@H](CCC(=O)O)C(=O)N[C@@H](CCCNC(=N)N)C(=O)N[C@H](C(=O)N[C@@H](CCC(=O)O)C(=O)N[C@@H](Cc1c[nH]c2ccccc12)C(=O)N[C@@H](CC(C)C)C(=O)N[C@@H](CCCNC(=N)N)C(=O)N[C@@H](CCCCN)C(=O)N[C@@H](CCCCN)C(=O)N[C@@H](CC(C)C)C(=O)N[C@@H](CCC(N)=O)C(=O)N[C@@H](CC(=O)O)C(=O)N[C@H](C(=O)N[C@@H](Cc1c[nH]cn1)C(=O)N[C@@H](CC(N)=O)C(=O)N[C@@H](Cc1ccccc1)C(=O)O)C(C)C)C(C)C [(Lys)6-PTH(1-34)(Human)-OH, H-(Lys)6-(-Ser-Val-Ser-Glu-Ile-Gln-Leu-Met-His-Asn-Leu -Gly-Lys-His-Leu-Asn-Ser-Met-Glu-Arg-Val-Glu-Trp-Leu-Arg-Lys-Lys-Leu-Gln -Asp-Val-His-Asn-Phe-OH]
pseudo first-order rate constant for the degradation (leucine aminopeptidase): 0.0035 min⁻¹ | half-life (leucine aminopeptidase): 3.3 h | Retraction assay % Retracted cells (osteoblast): 34.7% | activity relative to the mother compound hPTH(1-34) (osteoblast): 49%

hPTH(39-68): human PTH fragment listed in the EIA kit specificity (APLAPRDAGSQRPRKKEDNVLVESHEKSLG; Parathyroid hormone; UniProt P01270 70-99, looked up, fragment)
Specificity of the assay (PTH (1-34)-antibody): 0%

B1: hPTH(1-84): full-length human PTH listed in the EIA kit specificity (protein, UniProt P01270 32-115, looked up)
Parathyroid hormone: SVSEIQLMHNLGKHLNSMERVEWLRKKLQDVHNFVALGAPLAPRDAGSQRPRKKEDNVLVESHEKSLGEADKADVNVLTKAKSQ
modifications: Parathyroid hormone
Specificity of the assay (PTH (1-34)-antibody): 0%
